Results: ChEMBL document CHEMBL1126954, “Synthesis and antimalarial activity of some 9-substituted artemisinin derivatives” (J Med Chem, 1993)
Converted amounts (≈) assume the structure as drawn.

Legend:
Format in all cases: functional, organism-based
Plasmodium falciparum [1] = assay: In vitro antimalarial activity against Plasmodium falciparum D6 Sierra Leone
Plasmodium falciparum [2] = assay: In vitro antimalarial activity against Plasmodium falciparum D6 Sierra Leone relative to artemisinin
Plasmodium falciparum [3] = assay: In vitro antimalarial activity against Plasmodium falciparum W-2 (Indochina)
Plasmodium falciparum [4] = assay: In vitro antimalarial activity relative to artemisinin against Plasmodium falciparum W-2 (Indochina)
Plasmodium falciparum [5] = assay: In vitro antimalarial activity against Plasmodium falciparum D-6 Sierra Leone relative to artemisinin; Not active <= 5000 ng/mL
Plasmodium falciparum [6] = assay: In vitro antimalarial activity against Plasmodium falciparum D6 (Sierra Leone); Not active <= 5000 ng/mL
Plasmodium falciparum [7] = assay: In vitro antimalarial activity against Plasmodium falciparum W-2 (Indochina) relative to artemisinin; Not active at <5000 ng/mL
Plasmodium falciparum [8] = assay: In vitro antimalarial activity relative to artemisinin against Plasmodium falciparum W2 (Indochina); Not active <= 5000 ng/mL

| SMILES | IC50 (Plasmodium falciparum [1]) [ng/mL] | IC50 ratio (Plasmodium falciparum [2]) | IC50 (Plasmodium falciparum [3]) [ng/mL] | IC50 ratio (Plasmodium falciparum [4]) | IC50 (Plasmodium falciparum [4]; Plasmodium falciparum) [ng/mL] | IC50 (Plasmodium falciparum [5]) | IC50 (Plasmodium falciparum [6]) | IC50 (Plasmodium falciparum [7]) | IC50 (Plasmodium falciparum [8]) |
| --- | --- | --- | --- | --- | --- | --- | --- | --- | --- |
| C[C@@H]1CCC2[C@]34OO[C@](C)(CCC13)O[C@H]4OC(=O)[C@@]21CCN=N1 (stereo partly drawn) | 604 (≈ 1.87 µM) | 280 | 447 (≈ 1.39 µM) | 408 |  |  |  |  |  |
| C[C@@H]1CCC2[C@]34OO[C@](C)(CCC13)O[C@H]4O[C@H](OO)[C@]21CO1 (stereo partly drawn) | 2 (≈ 0.00636 µM) | 0.9 | 4 (≈ 0.0127 µM) | 3.7 |  |  |  |  |  |
| C[C@@H]1CCC2C(=O)C(=O)O[C@@H]3O[C@@]4(C)CCC1[C@@]23OO4 (stereo partly drawn) | 319 (≈ 1.13 µM) | 169 | 278 (≈ 0.985 µM) | 290 |  |  |  |  |  |
| CSC1=NN=C2C3CC[C@@H](C)C4CC[C@@]5(C)OO[C@@]34[C@H](OC2(O)S1)O5 (stereo partly drawn) | 789 (≈ 2.04 µM) | 305 | 564 (≈ 1.46 µM) | 429 |  |  |  |  |  |
| C[C@@H]1CC[C@H]2[C@@H](C)C(=O)O[C@@H]3O[C@@]4(C)CC[C@@H]1[C@]32OO4 [ARTEMISININ] | 1.89 (≈ 0.00669 µM) | 1 | 0.95 (≈ 0.00336 µM) |  | 1 (≈ 0.00354 µM) |  |  |  |  |
| C[C@@H]1CCC2[C@]34OO[C@](C)(CCC13)O[C@H]4OC(=O)[C@@]2(Br)CBr (stereo partly drawn) | 77 (≈ 0.175 µM) | 26 | 67 (≈ 0.152 µM) | 44 |  |  |  |  |  |
| C[C@@H]1CCC2[C@]34OO[C@](C)(CCC13)O[C@H]4OC(=O)[C@@]2(O)CO (stereo partly drawn) |  |  |  |  |  | Not Active | Not Active | Not Active | Not Active |
| C[C@@H]1CCC2[C@@]3(CO3)C(O)O[C@@H]3O[C@@]4(C)CCC1[C@@]23OO4 (stereo partly drawn) | 1.8 (≈ 0.00603 µM) | 0.9 | 3.4 (≈ 0.0114 µM) | 3.4 |  |  |  |  |  |
| C=C1C2CC[C@@H](C)C3CC[C@@]4(C)OO[C@@]23[C@H](O[C@@H]1O)O4 (stereo partly drawn) | 119 (≈ 0.421 µM) | 63 | 232 (≈ 0.822 µM) | 242 |  |  |  |  |  |
| C[C@@H]1CCC2[C@]34OO[C@](C)(CCC13)O[C@H]4OC(=O)[C@]21CO1 (stereo partly drawn) |  |  |  |  |  | Not Active | Not Active | Not Active | Not Active |
| C=C1C2CC[C@@H](C)C3CC[C@@]4(C)OO[C@@]23[C@H](O[C@@H]1OO)O4 (stereo partly drawn) | 4.08 (≈ 0.0137 µM) | 2 | 8.12 (≈ 0.0272 µM) | 8 |  |  |  |  |  |
| C=C1C(=O)O[C@@H]2O[C@@]3(C)CC[C@H]4[C@H](C)CC[C@@H]1[C@@]24OO3 [ARTEMISITENE] | 5.3 (≈ 0.0189 µM) | 2.8 | 7.44 (≈ 0.0265 µM) | 7.8 |  |  |  |  |  |
| C[C@@H]1CCC2[C@]34OO[C@](C)(CCC13)O[C@H]4OC(=O)[C@@]21CO1 (stereo partly drawn) | 96 (≈ 0.324 µM) | 48 | 124 (≈ 0.418 µM) | 123 |  |  |  |  |  |
| C[C@@H]1CCC2C3(CC3)C(=O)O[C@@H]3O[C@@]4(C)CCC1[C@@]23OO4 (stereo partly drawn) | 10 (≈ 0.034 µM) | 5.2 | 8.6 (≈ 0.0292 µM) | 8.6 |  |  |  |  |  |
| C[C@@H]1CCC2[C@]34OO[C@](C)(CCC13)O[C@H]4O[C@H](OO)[C@@]21CO1 (stereo partly drawn) | 2.8 (≈ 0.00891 µM) | 1.3 | 4.5 (≈ 0.0143 µM) | 4.2 |  |  |  |  |  |
| C/C=C1\C(=O)O[C@@H]2O[C@@]3(C)CCC4[C@H](C)CC[C@@H]1[C@]42OO3 (stereo partly drawn) | 2.1 (≈ 0.00713 µM) | 1.1 | 2.3 (≈ 0.00781 µM) | 2.3 |  |  |  |  |  |
| C[C@@H]1CCC2[C@H](O)[C@H](O)O[C@@H]3O[C@@]4(C)CCC1[C@@]23OO4 (stereo partly drawn) | 7.3 (≈ 0.0255 µM) | 3.8 | 7.4 (≈ 0.0258 µM) | 7.6 |  |  |  |  |  |
